In the supplement of paper PMC10307832:

How the values were obtained:
Experiment in all cases: relative viability (nuclei count vs DMSO), 5 days (fraction); higher = more cells survive
[1] = compound: CCN1CCN(c2ccc(Nc3cc(N(C)C(=O)Nc4c(Cl)c(OC)cc(OC)c4Cl)ncn3)cc2)CC1 [BGJ398] + CC(=O)Nc1cccc(-n2c(=O)n(C3CC3)c(=O)c3c(Nc4ccc(I)cc4F)n(C)c(=O)c(C)c32)c1 [Trametinib] (partner 0.02 µM)
How it was run: (§1)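 Relative viability equals treated-well nuclei counts divided by vehicle-well nuclei counts. Counts came from 4× images of lung cancer cell lines grown in 1536-well plates for 5 days after pin-tool dosing on the day after seeding. Dosing used one drug alone or a fixed anchor-drug dose plus five library-drug doses (not always all listed) in √10 steps, and values are medians of duplicate plates.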

[2] = compound: C1=CC2=NC=CN=C2C=C1/C=C/3\C(=O)NC(=O)S3 + COc1cc2c(Oc3ccc(NC(=O)C4(C(=O)Nc5ccc(F)cc5)CC4)cc3F)ccnc2cc1OCCCN1CCOCC1 [Foretinib] (partner 0.25 µM)
How it was run: as §1

[3] = compound: C1=CC2=NC=CN=C2C=C1/C=C/3\C(=O)NC(=O)S3 + O=C(CCCCCCC(=O)Nc1ccccc1)NO [Vorinostat] (partner 1 µM)
How it was run: as §1

[4] = compound: CCN1CCN(c2ccc(Nc3cc(N(C)C(=O)Nc4c(Cl)c(OC)cc(OC)c4Cl)ncn3)cc2)CC1 [BGJ398] + CC1(C)CCC(c2ccc(Cl)cc2)=C(CN2CCN(c3ccc(C(=O)NS(=O)(=O)c4ccc(N[C@H](CCN5CCOCC5)CSc5ccccc5)c(S(=O)(=O)C(F)(F)F)c4)cc3)CC2)C1 [Navitoclax] (partner 0.5 µM)
How it was run: as §1

Row | Cell Line | relative viability ([1]; first compound 0.01 µM) | relative viability ([1]; first compound 0.03162 µM) | relative viability ([1]; first compound 0.1 µM) | relative viability ([1]; first compound 0.3162 µM) | relative viability ([1]; first compound 1 µM) | relative viability ([2]; first compound 0.02 µM) | relative viability ([2]; first compound 0.06325 µM) | relative viability ([2]; first compound 0.2 µM) | relative viability ([2]; first compound 0.6325 µM) | relative viability ([2]; first compound 2 µM) | relative viability ([3]; first compound 0.02 µM) | relative viability ([3]; first compound 0.06325 µM) | relative viability ([3]; first compound 0.2 µM) | relative viability ([3]; first compound 0.6325 µM) | relative viability ([3]; first compound 2 µM) | relative viability ([4]; first compound 0.01 µM) | relative viability ([4]; first compound 0.03162 µM) | relative viability ([4]; first compound 0.1 µM) | relative viability ([4]; first compound 0.3162 µM) | relative viability ([4]; first compound 1 µM)
1 | 201T | 0.817 | 0.696 | 0.688 | 0.643 | 0.693 | 0.866 | 0.977 | 1.12 | 1.06 | 0.758 | 0.763 | 0.949 | 0.985 | 0.898 | 0.723 | 1.33 | 1.19 | 1.2 | 1.2 | 1.17
2 | A549 | – | – | – | – | – | 0.965 | 1.05 | 0.889 | 0.835 | 0.984 | – | – | – | – | – | 1.14 | 1.18 | 1.23 | 1.21 | 1.13
3 | A-427 | 0.624 | 0.595 | 0.585 | 0.427 | 0.438 | 1.08 | 1.11 | 1.13 | 1.01 | 1.06 | 0.791 | 0.877 | 0.888 | 0.864 | 0.947 | 0.978 | 0.92 | 0.914 | 0.67 | 0.624
4 | ABC-1 | – | – | – | – | – | 0.93 | 1.24 | 0.875 | 1.27 | 0.999 | 1.27 | 1.16 | 1.56 | 1.01 | 0.912 | – | – | – | – | –
5 | BEN | 0.84 | 1.02 | 1.03 | 0.899 | 0.952 | 0.787 | 0.869 | 0.693 | 0.666 | 0.473 | 0.506 | 0.553 | 0.539 | 0.52 | 0.477 | 0.0852 | 0.15 | 0.0576 | 0.0618 | 0.0501
6 | CAL-12T | 0.302 | 0.428 | 0.315 | 0.404 | 0.308 | 1.07 | 1.05 | 1.09 | 1.01 | 1.15 | 0.78 | 0.923 | 0.663 | 0.629 | 0.762 | 1.12 | 1.38 | 1.37 | 1.08 | 1.13
7 | COR-L23 | 0.512 | 0.64 | 0.63 | 0.486 | 0.68 | 0.94 | 0.961 | 0.96 | 0.934 | 0.979 | 0.39 | 0.486 | 0.471 | 0.408 | 0.345 | 1.05 | 0.978 | 0.986 | 0.966 | 1.08
8 | COR-L 105 | 0.423 | 0.431 | 0.444 | 0.399 | 0.431 | 1 | 1.39 | 0.9 | 0.906 | 1.06 | 0.694 | 0.872 | 0.697 | 0.605 | 0.835 | 0.707 | 0.805 | 0.815 | 0.827 | 0.598
9 | Calu-6 | – | – | – | – | – | 0.848 | 0.866 | 0.843 | 0.864 | 0.928 | – | – | – | – | – | 0.794 | 0.838 | 0.796 | 0.788 | 0.795
10 | ChaGo-K-1 | 0.876 | 0.914 | 0.871 | 0.922 | 0.929 | 0.83 | 0.673 | 0.922 | 0.844 | 0.95 | 0.742 | 0.544 | 0.756 | 0.662 | 0.652 | 1.06 | 0.913 | 0.76 | 0.69 | 0.444
11 | EBC-1 | – | – | – | – | – | – | 0.105 | 0.0907 | 0.0919 | 0.11 | – | – | – | – | – | 0.467 | 0.526 | 0.444 | 0.447 | 0.396
12 | EKVX | 0.326 | 0.336 | 0.368 | 0.261 | 0.359 | 0.753 | 0.602 | 0.773 | 0.541 | 0.746 | 0.704 | 0.576 | 0.761 | 0.709 | 0.594 | 0.896 | 1.02 | 1.16 | 0.874 | 0.992
13 | EMC-BAC-2 | 0.919 | 0.912 | 0.929 | 0.78 | 0.854 | 1.04 | 1.07 | 1.05 | 0.903 | 0.923 | 0.488 | 0.535 | 0.602 | 0.452 | 0.222 | 1.14 | 1.16 | 1.26 | 1.15 | 1.16
14 | EPLC-272H | 0.302 | 0.345 | 0.282 | 0.194 | 0.198 | 0.846 | 0.693 | 0.696 | 0.664 | 0.611 | 0.385 | 0.411 | 0.562 | 0.413 | 0.524 | 1.04 | 0.989 | 1.16 | 1.01 | 1.09
15 | H3255 | 0.61 | – | 0.702 | – | 0.707 | 0.786 | 0.968 | 0.881 | 0.899 | 0.965 | 0.781 | 0.884 | 0.835 | 0.865 | 0.67 | 0.477 | 0.161 | 0.614 | 0.408 | 0.548
16 | HARA | 0.778 | 0.41 | 0.43 | 0.604 | 0.437 | 0.857 | 0.83 | 0.888 | 0.841 | 1.02 | 0.548 | 0.463 | 0.522 | 0.487 | 0.406 | 1.11 | 1.14 | 1.19 | 1.13 | 1.05
17 | HCC-15 | 0.331 | 0.401 | 0.378 | 0.433 | 0.393 | 0.981 | 1.02 | 1.01 | 1.03 | 0.928 | 0.733 | 0.737 | 0.872 | 0.844 | 0.702 | 0.723 | 0.75 | 0.747 | 0.734 | 0.769
18 | HCC-44 | 1.01 | 1.03 | 1.03 | 1.04 | 0.949 | – | – | – | – | – | 0.959 | 1.13 | 1.08 | 1.13 | 1.17 | 0.797 | 0.91 | 1.13 | 1.06 | 0.866
